The text below walks through data of patent publication US10294229B2, “Heteroaryl substituted aminopyridine compounds” (BRISTOL-MYERS SQUIBB COMPANY, priority 2015, dated 2019).

Each structure is given as a SMILES string.

The target in one series is IRAK4 (Homo sapiens (Human), UniProt Q9NWZ3). In words: IRAK4 Inhibition Assay. It counts as biochemical. The conditions noted are these: ATP 500 μM; IRAK4 0.6 nM. In outline: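 Readout: electrophoretic (LabChip) separation of fluorescent peptide substrate from phosphorylated product after EDTA quench. Reactions ran 60 min at room temperature with 0.6 nM IRAK4, 1.5 μM peptide and 500 μM ATP; inhibition referenced to no-enzyme (100%) and vehicle (0%) controls.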

Series [1] in a line: Caco-2 Permeability Assay. The note with it: human, Caco-2, test compound 3 μM. Type of series: in vitro ADME. Put shortly: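 Bidirectional permeability measured over 2 h at 37° C, compound dosed at 3 μM in the donor compartment (apical for absorptive, basolateral for secretive) with plain buffer as receiver.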
For series [2], the system named is Human whole blood stimulated with a TLR2 agonist (lipoteichoic acid), IL-6 levels. Put plainly: IRAK4 Whole Blood Assay. Type of series: cell-based. The conditions noted are these: lipoteichoic acid 10 μg/mL. Put shortly:
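IL-6 was quantified by cytometric bead assay in supernatants of human blood (ACD-A) stimulated for 5 h with lipoteichoic acid at 10 μg/mL final. Compound exposure preceded stimulation for 60 min at 37 °C, 5% CO2.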

IRAK4, sequence (Q9NWZ3 whole entry, species assumed): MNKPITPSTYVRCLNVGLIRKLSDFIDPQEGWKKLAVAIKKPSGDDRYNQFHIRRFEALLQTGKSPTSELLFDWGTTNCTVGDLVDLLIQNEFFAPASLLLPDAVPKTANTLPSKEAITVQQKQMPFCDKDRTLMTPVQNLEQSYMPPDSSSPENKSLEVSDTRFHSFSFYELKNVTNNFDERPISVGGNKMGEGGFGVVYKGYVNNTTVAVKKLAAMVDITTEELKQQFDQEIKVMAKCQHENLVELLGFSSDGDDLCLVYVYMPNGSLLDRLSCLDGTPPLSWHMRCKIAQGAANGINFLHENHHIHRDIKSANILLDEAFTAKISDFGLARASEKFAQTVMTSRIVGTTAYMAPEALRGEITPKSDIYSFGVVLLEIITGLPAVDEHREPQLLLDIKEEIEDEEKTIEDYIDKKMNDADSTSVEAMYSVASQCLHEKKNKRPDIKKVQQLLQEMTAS

On to `CC(=O)N1CCC[C@@H]1c1cc(-c2cnc(-n3ncc4cc(C#N)cnc43)cc2NC(C)C)on1` [Example 417, (R)-1-(5-(3-(1-acetylpyrrolidin-2-yl)isoxazol-5-yl)-4-(isopropylamino)pyridin-2-yl)-1H-pyrazolo [3,4-b]pyridine-5-carbonitrile], for which the IC50 – broadly, the concentration needed to halve the response being measured – on IRAK4 was 7 nM. In series [1], the Papp (usually the rate of passage across a membrane or cell layer, normalised by area and donor concentration) at 2 h, 3 µM amounted to 29.2 ×10⁻⁶ cm/s. For the same compound, the midpoint of the response in series [2] (Homo sapiens), the EC50, lay at 340 nM.

Regarding `CC(C)(F)CCc1cn(-c2cnc(-n3ncc4cc(C#N)cnc43)cc2NC2COC2)nn1` [Example 363, 1-(5-(4-(3-fluoro-3-methylbutyl)-1H-1,2,3-triazol-1-yl)-4-(oxetan-3-ylamino)pyridin-2-yl)-1H-pyrazolo[3,4-b]pyridine-5-carbonitrile], on IRAK4, the IC50 is 6 nM. Also, the apparent permeability (Papp) at 2 h, 3 µM in series [1] came to 15.6 ×10⁻⁶ cm/s. A half-maximal response in series [2] (Homo sapiens) (EC50) required 330 nM.

Consider `CC(C)Nc1cc(-n2ncc3cnc(N)nc32)ncc1-n1cc(CCC(C)(C)O)nn1` [Example 350, 4-(1-(6-(6-amino-1H-pyrazolo[3,4-d]pyrimidin-1-yl)-4-(isopropylamino)pyridin-3-yl)-1H-1,2,3-triazol-4-yl)-2-methylbutan-2-ol], for which, on IRAK4, the half-maximal inhibitory concentration (IC50) is 6 nM. Moreover, the apparent permeability (Papp) at 2 h, 3 µM in series [1] came out at 6.4 ×10⁻⁶ cm/s. Besides, the EC50 (usually the concentration giving half of the maximal effect) in series [2] (Homo sapiens) worked out at 280 nM.

`CC(C)Nc1cc(-n2ccc3cncnc32)ncc1-c1cn([C@@H]2CCNC[C@@H]2O)nn1` [Example 7, (3S,4R)-4-(4-(4-(isopropylamino)-6-(7H-pyrrolo[2,3-d]pyrimidin-7-yl)pyridin-3-yl)-1H-1,2,3-triazol-1-yl)piperidin-3-ol]: the IC50 on IRAK4 is 7 nM. This compound also registered an apparent permeability (Papp) at 2 h, 3 µM in series [1] of 3.9 ×10⁻⁶ cm/s. Further, the EC50 in series [2] (Homo sapiens) came to 4120 nM.

For `CC(C)Nc1cc(-n2ncc3cc(C#N)cnc32)ncc1-n1cc(CCC(C)(C)OC(=O)CN(C)C)nn1` [Example 384, 4-(1-(6-(5-cyano-1H-pyrazolo[3,4-b]pyridin-1-yl)-4-(isopropylamino)pyridin-3-yl)-1H-1,2,3-triazol-4-yl)-2-methylbutan-2-yl dimethylglycinate], the IC50 on IRAK4 amounted to 2 nM. Further, the apparent permeability coefficient (Papp) at 2 h, 3 µM in series [1] is 13.1 ×10⁻⁶ cm/s. The same compound gave an EC50 in series [2] (Homo sapiens) of 250 nM.

For `CC(C)(F)CCc1cn(-c2cnc(-n3ncc4cc(C#N)cnc43)cc2N[C@@H]2CCOC2)nn1` [Example 373, (R)-1-(5-(4-(3-fluoro-3-methylbutyl)-1H-1,2,3-triazol-1-yl)-4-((tetrahydrofuran-3-yl)amino)pyridin-2-yl)-1H-pyrazolo[3,4-b]pyridine-5-carbonitrile], the IC50 on IRAK4 worked out at 4 nM. For the same compound, the Papp at 2 h, 3 µM in series [1] was 27.7 ×10⁻⁶ cm/s. Also, the response in series [2] (Homo sapiens) was half-maximal at 300 nM (EC50).

For the compound `CC(C)Nc1cc(-n2ncc3cc(C#N)cnc32)ncc1-c1cn(CCc2ccccc2)nn1` [Example 56, 1-(4-(isopropylamino)-5-(1-phenethyl-1H-1,2,3-triazol-4-yl)pyridin-2-yl)-1H-pyrazolo [3,4-b]pyridine-5-carbonitrile], the IC50 on IRAK4 amounted to 3 nM. In series [1], this compound gave a Papp at 2 h, 3 µM of 7.2 ×10⁻⁶ cm/s. The compound further showed an EC50 in series [2] (Homo sapiens) of 180 nM.

Consider `CC(C)Nc1cc(-n2ncc3cc(C#N)cnc32)ncc1-c1cn([C@@H]2CCN(S(C)(=O)=O)C[C@@H]2O)nn1` [Example 188, 1-(5-(1-((3S,4R)-3-hydroxy-1-(methylsulfonyl)piperidin-4-yl)-1H-1,2,3-triazol-4-yl)-4-(isopropylamino)pyridin-2-yl)-1H-pyrazolo[3,4-b]pyridine-5-carbonitrile], for which the IC50 on IRAK4 turned out to be 18 nM. This compound also showed a Papp at 2 h, 3 µM in series [1] below 1.5 ×10⁻⁶ cm/s. The compound also returned an EC50 in series [2] (Homo sapiens) of 110 nM.

Take `CC(=O)N1CC[C@@H](n2cc(-c3cnc(-n4ncc5cc(C#N)cnc54)cc3NC(C)C)nn2)[C@H](O)C1` (single isomer, unassigned) [Example 203]: the IC50 at IRAK4 came to 4 nM. In series [1], the apparent permeability coefficient (Papp) at 2 h, 3 µM is below 1.5 ×10⁻⁶ cm/s. Further, the EC50 in series [2] (Homo sapiens) amounted to 720 nM.

On to `CC(C)Nc1cc(-n2ncc3cc(C#N)cnc32)ncc1-c1cn(C2CCOC2)nn1` (stereo not drawn) [Example 214, 1-(4-(isopropylamino)-5-(1-(tetrahydrofuran-3-yl)-1H-1,2,3-triazol-4-yl)pyridin-2-yl)-1H-pyrazolo[3,4-b]pyridine-5-carbonitrile], for which the IC50 at IRAK4 came out at 7 nM. In series [1], this compound came in with a Papp at 2 h, 3 µM of 13.6 ×10⁻⁶ cm/s. In addition, a half-maximal response in series [2] (Homo sapiens) (EC50) required 920 nM.

As for `CC(C)Nc1cc(-n2ncc3cc(C#N)cnc32)ncc1-c1cn(C(C)C)nn1` [Example 213, 1-(5-(1-isopropyl-1H-1,2,3-triazol-4-yl)-4-(isopropylamino)pyridin-2-yl)-1H-pyrazolo[3,4-b]pyridine-5-carbonitrile], at IRAK4, the IC50 was determined as 5 nM. In addition, the Papp at 2 h, 3 µM in series [1] was 19.3 ×10⁻⁶ cm/s. In series [2] (Homo sapiens), this compound registered an EC50 of 1750 nM.

With `CCCn1cc(-c2cnc(-n3ncc4cc(C#N)c(N)nc43)cc2NC2CC2)nn1` [Example 35, 6-amino-1-(4-(cyclopropylamino)-5-(1-propyl-1H-1,2,3-triazol-4-yl)pyridin-2-yl)-1H-pyrazolo [3,4-b]pyridine-5-carbonitrile], the IC50 at IRAK4 came out at 3 nM. The Papp at 2 h, 3 µM in series [1] was found to be 23.7 ×10⁻⁶ cm/s. Further, in series [2] (Homo sapiens), it took 460 nM to reach a half-maximal effect (EC50).

Regarding `CCCn1cc(-c2cnc(-n3cnc4cnc(N)nc43)cc2NC(C)C)nn1` [Example 62, 9-(4-(isopropylamino)-5-(1-propyl-1H-1,2,3-triazol-4-yl)pyridin-2-yl)-9H-purin-2-amine], on IRAK4, the IC50 came out at 4 nM. Further, the apparent permeability coefficient (Papp) at 2 h, 3 µM in series [1] amounted to 32.1 ×10⁻⁶ cm/s. This compound also displayed an EC50 in series [2] (Homo sapiens) of 140 nM.

Regarding `CC(C)Nc1cc(-n2ncc3cc(C#N)cnc32)ncc1-c1cn([C@@H](C)[C@H](C)O)nn1` (single isomer, unassigned) [Example 90], on IRAK4, the IC50 was determined as 4 nM. Also, the Papp at 2 h, 3 µM in series [1] was 10.1 ×10⁻⁶ cm/s. In series [2], this compound showed a concentration giving a half-maximal response (EC50) of 170 nM.

Consider `CC(C)Nc1cc(-n2ncc3cc(C#N)cnc32)ncc1-c1cn(CC2CCC2)nn1` [Example 117, 1-(5-(1-(cyclobutylmethyl)-1H-1,2,3-triazol-4-yl)-4-(isopropylamino)pyridin-2-yl)-1H-pyrazolo[3,4-b]pyridine-5-carbonitrile], for which, on IRAK4, the 50% inhibitory concentration (IC50) came to 4 nM. The Papp at 2 h, 3 µM in series [1] is 10.1 ×10⁻⁶ cm/s. For the same compound, it took 1190 nM to reach a half-maximal effect in series [2] (Homo sapiens) (EC50).

For `CC(=O)N1CCC[C@@H](c2cc(-c3cnc(-n4ncc5cc(C#N)cnc54)cc3NC(C)C)on2)C1` [Example 407, (R)-1-(5-(3-(1-acetylpiperidin-3-yl)isoxazol-5-yl)-4-(isopropylamino)pyridin-2-yl)-1H-pyrazolo[3,4-b]pyridine-5-carbonitrile], on IRAK4, the half-maximal inhibitory concentration (IC50) stood at 1 nM. Moreover, in series [1], the Papp at 2 h, 3 µM was 25 ×10⁻⁶ cm/s. This compound also returned an EC50 in series [2] (Homo sapiens) of 290 nM.

`CCCc1cn(-c2cnc(-n3ncc4cncnc43)cc2Nc2cnn(CC(F)F)c2)nn1` [Example 270, N-(1-(2,2-difluoroethyl)-1H-pyrazol-4-yl)-5-(4-propyl-1H-1,2,3-triazol-1-yl)-2-(1H-pyrazolo[3,4-d]pyrimidin-1-yl)pyridin-4-amine]: on IRAK4, the IC50 is 6 nM. Further, the apparent permeability (Papp) at 2 h, 3 µM in series [1] is 37.2 ×10⁻⁶ cm/s. Further, in series [2] (Homo sapiens), the EC50 was 1170 nM.

With `CC(C)(O)CCc1cn(-c2cnc(-n3ncc4cc(C#N)cnc43)cc2NC(CF)CF)nn1` [Example 377, 1-(4-((1,3-difluoropropan-2-yl)amino)-5-(4-(3-hydroxy-3-methylbutyl)-1H-1,2,3-triazol-1-yl)pyridin-2-yl)-1H-pyrazolo[3,4-b]pyridine-5-carbonitrile], the half-inhibitory concentration (IC50) on IRAK4 stood at 7 nM. The compound also returned a Papp at 2 h, 3 µM in series [1] below 1.5 ×10⁻⁶ cm/s. This compound also yielded an EC50 in series [2] (Homo sapiens) of 240 nM.
